Ends that are not written are not given here.
Key:
E. coli = E. coli susceptibility to CRAMP with or without NaHCO3; format: cell-based; details: 16 uM peptide
Group B Strep (GBS) = assay: Group B Strep susceptibility to CRAMP; format: cell-based; details: 16 uM peptide; without NaHCO3
Salmonella = Salmonella susceptibility to CRAMP; format: cell-based; details: 16 uM peptide; without NaHCO3
antigen presentation = assay: Antigen presentation in vitro; format: cell-based
Staphylococcus aureus = assay: S. aureus growth inhibition (turbidity OD600) with or without carbonate; format: cell-based; details: for Susceptibility of S. aureus: 16 uM peptide; for Effect of NaHCO3 on minimal inhibitory concentration (MIC) against Staph aureus: 20% TSB, 1 mM NaH2PO4, 50 mM NaHCO3, pH 7.4
Description: Carbonate was identified as the antimicrobial enhancing factor in mammalian tissue culture media via serial deletion of Minimal Essential Media (MEM) components. Staphylococcus aureus was cultured in 20% Tryptic Soy Broth (TSB), 10% Fetal Bovine Serum (FBS) and 70% of various media or media components with, or without, 32 μM LL-37 to assess which components could increase antimicrobial activity. MEM buffers are 2200 mg/L NaHCO3, 140 mg/L NaH2PO4 and 6800 mg/L NaCl. MEM salts are 200 mg/L CaCl2, 400 mg/L KCl, 98 mg/L MgSO4. All solutions were adjusted to pH 7.4. Bacterial growth was measured as the change in turbidity at OD600 and percent inhibition was determined by comparing bacterial growth in the presence of peptide to that in the absence of peptide. […]
Inhibition of Staph aureus growth in the presence of various concentrations of human (LL-37), murine (CRAMP) and porcine (PR-39). Cathelicidin antimicrobial peptides was measured in 20% TSB, 1 mM NaH2PO4, with, or without, 50 mM NaHCO3 at pH 7.4. […]

[1] = system: wild-type S. aureus (clinical isolate); assay: Radial diffusion assay against wild-type S. aureus; format: cell-based, Staphylococcus aureus; details: for Action against wild-type S. aureus compared to LL-37: synthetic peptides
Description: (§1) Antimicrobial assays. For screening of antimicrobial activity of HPLC fractions, radial diffusion assay was used. Lyophilized HPLC fractions were dissolved in DW (GibcoBRL, Grand Island, N.Y.), and tested against Staphylococcus aureus mprF. Thin plates (1 mm) of 1% agarose in 0.5% tryptone containing approximately […] of S. aureus mprF were used. 1 mm wells were punched in the plates and […] of samples dissolved in tissue culture grade sterile water were loaded in each well.
(§2) As a positive control, synthetic LL-37 was applied to separate wells. After incubation at 37° C. overnight, the inhibition zones were recorded by CCD camera and diameters measured. To evaluate antimicrobial activity against wild-type S. aureus (clinical isolate), and enteroinvasive E. coli 029, both radial diffusion and solution killing assays were done. Radial diffusion assays were done as described for S. aureus mprF. Solution killing was done in 10% TSB in 10 mM PB (TSB=30 gm/L Tryptic Soy Broth, Sigma, St Louis Mo.; 20×PB=27.6 g/L NaH2PO4-H2O, 53.65 g/L Na2HPO4-7H2O, pH 7.4). Bacteria in log-phase growth were suspended to 1×10^6 cells/ml, peptide added and incubated at 37° C. for 2 hr. Bacteria were then plated on TSB agar (TSB, Bactoagar 13 g/L, Becton Dickinson, Sparks Md.) for direct colony count and determination of CFU.

human erythrocytes = assay: Hemolysis assay on human whole blood; format: cell-based
Description: Hemolysis Assay. Hemolytic activity was determined on human whole blood. Freshly obtained whole blood was washed 3× in PBS and resuspended in PBS at its original volume containing peptides at indicated concentrations. Samples were incubated at 37° C. for 1.5 to 3 h, and hemolysis determined by centrifuging at 300 g and measurement of the absorbance of the supernatant at 578 nm. Hemolytic activity of each peptide was expressed as the percentage of total hemoglobin released compared to that released by incubating with 0.1% Triton X-100.

[2] = system: enteroinvasive E. coli 029; assay: Radial diffusion assay against E. coli 029; format: cell-based; details: for Action against E. coli compared to LL-37: synthetic peptides
Description: as §1, §2

C. albicans ATCC 14053 = assay: Liquid assay against C. albicans (minimum fungicide concentration); format: cell-based, Candida albicans; details: for Fungicidal activity against Candida albicans compared to LL-37: synthetic peptides
Description: (§3) Activity against Group A Streptococcus (NZ131) was done only in solution assay as described. To evaluate antimicrobial activity in high salt conditions, solution assay was done in 10% TSB/10 mM PBS with several salt concentrations (concentration of NaCl; 10, 50, 100, 150, 300, 500 mM). Action against the C. albicans was determined in Dixon medium (0.6% Peptone, 4% Malt Extract, 1% Glucose, 0.1% Ox Bile, 1% Tween-80) in sterile 96-well microtiter plates (Corning Inc., Corning, N.Y.) at a final volume of […]. The assay mixtures contained 1-2.5×10^4 […] freshly grown Candida, 20% Dixon medium, 0.6 mM phosphate buffer pH 7, and […] chloramphenicol. Microtiter plates were incubated at 37° C. for 24 h with peptides, then plated on Dixon agar to determine the MFC (minimum fungicide concentration).

[3] = system: Staphylococcus aureus mprF; assay: Radial diffusion assay against S. aureus mprF; format: cell-based
Description: as §1, §2

[4] = system: Group A Streptococcus (NZ131); format: cell-based
Description: as §2, §3

S. aureus = assay: Release of cytoplasmic beta-galactosidase (membrane disruption); format: cell-based; details: with carbonate versus without
Source text: Release of cytoplasmic expressed beta-galactosidase was measure from bacteria with and without the addition of NaHCO3.

CRAMP
Susceptibility of E. coli (E. coli; with 50 mM NaHCO3): susceptible | Susceptibility of E. coli (E. coli; without 50 mM NaHCO3): resistant | Susceptibility of Group B Strep (GBS) (Group B Strep (GBS)): susceptible | Susceptibility of Salmonella (Salmonella): susceptible | Antigen presentation in vitro (antigen presentation): inhibits antigen presentation | Susceptibility of S. aureus (Staphylococcus aureus; with 50 mM NaHCO3): susceptible | Susceptibility of S. aureus (Staphylococcus aureus; without 50 mM NaHCO3): resistant | Effect of NaHCO3 on minimal inhibitory concentration (MIC) against Staph aureus (Staphylococcus aureus): greatly reduced

KRIVQRIKDFLRNLVPRTES (listed as Homo sapiens) [KR-20, 20 amino acid cathelicidin derivative]
Radial Diffusion Assay minimal inhibitory concentration (MIC), S. aureus (wt) [1]: >64 μm | % hemolysis (human erythrocytes): 0% | Radial Diffusion Assay minimal inhibitory concentration (MIC), E. coli (029) [2]: >64 μm | Liquid Assay minimal concentration required to kill C. albicans ATCC 14053 (C. albicans ATCC 14053): 10 μm | Fungicidal activity against Candida albicans compared to LL-37 (C. albicans ATCC 14053): increased fungicidal activity | Radial Diffusion Assay minimal inhibitory concentration (MIC), S. aurus MprF [3]: 16 μm | Liquid Assay minimal concentration required to kill GAS (NZ131) [4]: 4 μm

KSKEKIGKEFKRIVQRIKDFLRNLVPRTES [KS-30]
Radial Diffusion Assay minimal inhibitory concentration (MIC), S. aureus (wt) [1]: 16 μm | Action against wild-type S. aureus compared to LL-37 [1]: greatly increased action | % hemolysis (human erythrocytes): .23% | Radial Diffusion Assay minimal inhibitory concentration (MIC), E. coli (029) [2]: 8 μm | Action against E. coli compared to LL-37 [2]: greatly increased action | Liquid Assay minimal concentration required to kill C. albicans ATCC 14053 (C. albicans ATCC 14053): 2 μm | Fungicidal activity against Candida albicans compared to LL-37 (C. albicans ATCC 14053): increased fungicidal activity | Radial Diffusion Assay minimal inhibitory concentration (MIC), S. aurus MprF [3]: 8 μm | Liquid Assay minimal concentration required to kill GAS (NZ131) [4]: 4 μm

PR-39: porcine cathelicidin antimicrobial peptide (RRRPRPPYLPRPRPPPFFPPRLPPRIPPGFPPRFPPRFP; UniProt P80054 131-169, looked up)
Effect of NaHCO3 on minimal inhibitory concentration (MIC) against Staph aureus (Staphylococcus aureus): greatly reduced

Polymyxin B
Leakage of cytoplasmic protein (beta-galactosidase) from S. aureus (S. aureus): greater leakage

RKSKEKIGKEFKRIVQRIKDFLRNLVPRTES (listed as Homo sapiens) [RK-31, cathelicidin peptide generated from LL-37]
Radial Diffusion Assay minimal inhibitory concentration (MIC), S. aureus (wt) [1]: 16 μm | Action against wild-type S. aureus compared to LL-37 [1]: greatly increased action | % hemolysis (human erythrocytes): 6% | Radial Diffusion Assay minimal inhibitory concentration (MIC), E. coli (029) [2]: 8 μm | Action against E. coli compared to LL-37 [2]: greatly increased action | Liquid Assay minimal concentration required to kill C. albicans ATCC 14053 (C. albicans ATCC 14053): 4 μm | Fungicidal activity against Candida albicans compared to LL-37 (C. albicans ATCC 14053): increased fungicidal activity | Radial Diffusion Assay minimal inhibitory concentration (MIC), S. aurus MprF [3]: 8 μm | Liquid Assay minimal concentration required to kill GAS (NZ131) [4]: 8 μm

SSLLEKGLDGAKKAVGGLGKLGKDAVEDLESVGKGAVHDVKDVLDSV (listed as Homo sapiens) [DCD, dermcidin antimicrobial peptide of human sweat, reference compound]
Radial Diffusion Assay minimal inhibitory concentration (MIC), S. aureus (wt) [1]: >64 μm | Radial Diffusion Assay minimal inhibitory concentration (MIC), E. coli (029) [2]: >64 μm | Liquid Assay minimal concentration required to kill C. albicans ATCC 14053 (C. albicans ATCC 14053): >32 μm | Radial Diffusion Assay minimal inhibitory concentration (MIC), S. aurus MprF [3]: >64 μm | Liquid Assay minimal concentration required to kill GAS (NZ131) [4]: >64 μm

Source: patent publication US7776823B2, “Human cathelicidin antimicrobial peptides” (priority 2003, dated 2010)
